Source: patent US20260337211A1, “IP5 SUBSTITUTED COMPOUNDS” (SANIFIT THERAPEUTICS, S.A., priority 2022, published 2026)
Counter-ions that a name gives are not always drawn.

Assay: In vitro inhibition of calcium phosphate crystallization in human plasma (spectrophotometric, 550 nm)
Type: biochemical
Conditions: 0-100 μM compound, 1.5 mM phosphate and 12.5 mM calcium, pH 7.4, 30 min at rt, slope between 6 and 24 min, 30 min, read-out: Relative Potency (EC50)
Procedure: The in vitro efficacy of the IP5 substituted compounds (e.g., Compounds 1 to 32) of the invention on the inhibition of calcium phosphate crystallization in human plasma samples was evaluated according to a spectrophotometric assay previously described in the art (Ferrer M, et al., Sci Rep 2017; 7:6858, doi:10.1038/s41598-017-07203-x).
A 96-well plate was employed. Plasma was spiked (1 volume of the IP5 substituted compounds of the invention per 19 volumes of plasma) with increasing concentrations of the derivatives in the range of 0-100 μM. Plasma was then centrifuged at 10,000 g at rt and subsequently mixed with a mixture of 5 mM hydrogen phosphate and 41.67 mM calcium to attain final concentrations of 1.5 mM phosphate and 12.5 mM calcium, respectively. All reagent solutions were filtered, and pH adjusted to 7.4.
Crystallization of calcium phosphate was monitored spectrophotometrically for 30 min at rt by measuring the increments in absorbance at 550 nm using the Biotek Powerwave XS Microplate spectrophotometer (BioTek Instruments, Inc., Winooski, VT, US). The plate was incubated at rt in an orbital shaker and absorbance measured every 3 min.
Plasma crystallization was assessed based on slope measurement in the linear range between 6 and 24 min from plots of increase in absorbance versus logarithm of time. The efficacy of different myo-inositol phosphates derivatives in preventing in vitro formation of calcium phosphate crystals was assessed in human plasma samples using the slopes obtained between 6- and 24-min. Inhibition of crystallization was measured by comparing the slopes of the control sample (blank plasma) with those of samples containing the inhibitor as shown below: […]

`O=P(O)(O)OC1C(OCCCCCC(F)(F)F)C(OP(=O)(O)O)C(OP(=O)(O)O)C(OP(=O)(O)O)C1OP(=O)(O)O` (centres unmarked) [Compound 36, 2-O-(6,6,6-Trifluorohexyl)-myo-inositol-1,3,4,5,6-pentakis(phosphate) decasodium salt] showed an EC50 of at most 5 µM.

Same assay, conditions: 0-100 μM compound, 1.5 mM phosphate and 12.5 mM calcium, pH 7.4, 30 min at rt, slope between 6 and 24 min, read-out: Relative Potency (EC50)

“rac-4-O-(6,6,6-Trifluorohexyl)-myo-inositol-1,2,3,5,6-pentakis(phosphate) decasodium salt [Compound 13]” and “2-O-Pentyl-myo-inositol-1,3,4,5,6-pentakis(phosphate) decasodium salt [Compound 6]” cannot be ordered by EC50: at most 5 µM for the first, at most 5 µM for the second.

“5-O-(2-Cyclopropylethyl)-myo-inositol-1,2,3,4,6-pentakis(phosphate) decasodium salt [Compound 30]” and “rac-4-O-Propyl-myo-inositol-1,2,3,5,6-pentakis(phosphate) decasodium salt [Compound 24]” cannot be ordered by EC50: 5 to 10 µM for the first, at most 5 µM for the second.

“rac-1-O-((1-(2-(Metoxycarbonyl)ethyl)-1H-1,2,3-triazol-4-yl)methyl)-myo-inositol-2,3,4,5,6-pentakis(phosphate) undecasodium salt [Compound 53]” and “5-O-(9-Methoxynonyl)-myo-inositol-1,2,3,4,6-pentakis(phosphate) decasodium salt [Compound 31]” fall in the same range of EC50: 5 to 10 µM for the first, 5 to 10 µM for the second.

`CCCOC1C(OP(=O)(O)O)C(OP(=O)(O)O)C(OP(=O)(O)O)C(OP(=O)(O)O)C1OP(=O)(O)O` (centres unmarked) [Compound 34, 2-O-Propyl-myo-inositol-1,3,4,5,6-pentakis(phosphate) decasodium salt] and `COCCCCCCCCCO[C@H]1[C@@H](OP(=O)(O)O)[C@H](OP(=O)(O)O)[C@@H](OP(=O)(O)O)[C@H](OP(=O)(O)O)[C@H]1OP(=O)(O)O` [Compound 8, 2-O-(9-Methoxynonyl)-myo-inositol-1,3,4,5,6-pentakis(phosphate) decasodium salt] fall in the same range of EC50: 5 to 10 µM for the first, 5 to 10 µM for the second.

Compared with `O=C(O)CCc1cn(CCCOC2C(OP(=O)(O)O)C(OP(=O)(O)O)C(OP(=O)(O)O)C(OP(=O)(O)O)C2OP(=O)(O)O)nn1` (racemic) [Compound 25, rac-4-O-(3-(4-(2-carboxyethyl)-1H-1,2,3-triazol-1-yl)propyl)-myo-inositol-1,2,3,5,6-pentakis(phosphate) undecasodium salt], “rac-1-O-(9-Methoxynonyl)-myo-inositol-2,3,4,5,6-pentakis(phosphate) decasodium salt [Compound 47]” is lower in EC50: over 10 µM for the first, at most 5 µM for the second. The second is the more potent here.

`O=P(O)(O)OC1C(OCCCCCO)C(OP(=O)(O)O)C(OP(=O)(O)O)C(OP(=O)(O)O)C1OP(=O)(O)O` (centres unmarked) [Compound 40, 2-O-(5-Hydroxypentyl)-myo-inositol-1,3,4,5,6-pentakis(phosphate) decasodium salt] and “rac-4-O-(7-Methoxyheptyl)-myo-inositol-1,2,3,5,6-pentakis(phosphate) decasodium salt [Compound 23]” fall in the same range of EC50: 5 to 10 µM for the first, 5 to 10 µM for the second.

“2-O-(5-Methoxypentyl)-myo-inositol-1,3,4,5,6-pentakis(phosphate) decasodium salt [Compound 7]” and `COc1ccc(CCCOC2C(OP(=O)(O)O)C(OP(=O)(O)O)C(OP(=O)(O)O)C(OP(=O)(O)O)C2OP(=O)(O)O)cc1` (racemic) [Compound 14, rac-4-O-(3-(4-Methoxyphenyl)propyl)-myo-inositol-1,2,3,5,6-pentakis(phosphate) decasodium salt] cannot be ordered by EC50: 5 to 10 µM for the first, at most 5 µM for the second.

`NCCCOC1C(OP(=O)(O)O)C(OP(=O)(O)O)C(OP(=O)(O)O)C(OP(=O)(O)O)C1OP(=O)(O)O` (racemic) [Compound 27, rac-4-O-(3-Aminopropyl)-myo-inositol-1,2,3,5,6-pentakis(phosphate) decasodium salt] and “rac-1-O-(5-(4-(Methoxymethyl)-1H-1,2,3-triazol-1-yl)pentyl)-myo-inositol-2,3,4,5,6-pentakis(phosphate) decasodium salt [Compound 52]” cannot be ordered by EC50: at most 5 µM for the first, 5 to 10 µM for the second.

`O=P(O)(O)OC1C(OCCC2CCCC2)C(OP(=O)(O)O)C(OP(=O)(O)O)C(OP(=O)(O)O)C1OP(=O)(O)O` (racemic) [Compound 51, rac-1-O-(2-Cyclopentylethyl)-myo-inositol-2,3,4,5,6-pentakis(phosphate) decasodium salt] and `Cc1ccc(CCCOC2C(OP(=O)(O)O)C(OP(=O)(O)O)C(OP(=O)(O)O)C(OP(=O)(O)O)C2OP(=O)(O)O)cc1` (racemic) [Compound 11, rac-4-O-(3-(p-Tolyl)propyl)-myo-inositol-1,2,3,5,6-pentakis(phosphate) decasodium salt] cannot be ordered by EC50: at most 5 µM for the first, 5 to 10 µM for the second.

Compared with “rac-4-O-Methyl-myo-inositol-1,2,3,5,6-pentakis(phosphate) decasodium salt [Compound 22]”, “2-O-(19-methoxynonadecyl)-myo-inositol-1,3,4,5,6-pentakis(phosphate) decasodium salt [Compound 9]” is higher in EC50: 5 to 10 µM for the first, over 10 µM for the second.

“2-O-Propargyl-myo-inositol-1,3,4,5,6-pentakis(phosphate) decasodium salt [Compound 43]” and “rac-4-O-(5-Acetamidopentyl)-myo-inositol-1,2,3,5,6-pentakis(phosphate) decasodium salt [Compound 19]” fall in the same range of EC50: 5 to 10 µM for the first, 5 to 10 µM for the second.

`CC(C)CCCOC1C(OP(=O)(O)O)C(OP(=O)(O)O)C(OP(=O)(O)O)C(OP(=O)(O)O)C1OP(=O)(O)O` (racemic) [Compound 12, rac-4-O-(4-Methylpentyl)-myo-inositol-1,2,3,5,6-pentakis(phosphate) decasodium salt] and `NC(=O)CCCCCOC1C(OP(=O)(O)O)C(OP(=O)(O)O)C(OP(=O)(O)O)C(OP(=O)(O)O)C1OP(=O)(O)O` (racemic) [Compound 33, rac-4-O-(6-Amino-6-oxohexyl)-myo-inositol-1,2,3,5,6-pentakis(phosphate) decasodium salt] cannot be ordered by EC50: 5 to 10 µM for the first, at most 5 µM for the second.

First: 5-O-(6,6,6-Trifluorohexyl)-myo-inositol-1,2,3,4,6-pentakis(phosphate) decasodium salt [Compound 45]
Second: COCc1cn(CCCCCOC2C(OP(=O)(O)O)C(OP(=O)(O)O)C(OP(=O)(O)O)C(OP(=O)(O)O)C2OP(=O)(O)O)nn1 (centres unmarked) [Compound 46, 5-O-(5-(4-(Methoxymethyl)-1H-1,2,3-triazol-1-yl)pentyl)-myo-inositol-1,2,3,4,6-pentakis(phosphate) decasodium salt]
The EC50 of the first is lower: 5 to 10 µM for the first, over 10 µM for the second. The first is the more potent here.

`O=P(O)(O)OC1C(OCCC2CC2)C(OP(=O)(O)O)C(OP(=O)(O)O)C(OP(=O)(O)O)C1OP(=O)(O)O` (centres unmarked) [Compound 39, 2-O-(2-Cyclopropylethyl)-myo-inositol-1,3,4,5,6-pentakis(phosphate) decasodium salt] and `O=P(O)(O)OC1C(OCCCCCn2cccn2)C(OP(=O)(O)O)C(OP(=O)(O)O)C(OP(=O)(O)O)C1OP(=O)(O)O` (racemic) [Compound 18, rac-4-O-(5-(1H-Pyrazol-1-yl)pentyl)-myo-inositol-1,2,3,5,6-pentakis(phosphate) decasodium salt] fall in the same range of EC50: 5 to 10 µM for the first, 5 to 10 µM for the second.

Going from “2-O-(5-(4-(Methoxymethyl)-1H-1,2,3-triazol-1-yl)pentyl)-myo-inositol-1,3,4,5,6-pentakis(phosphate) decasodium [Compound 41]” to “rac-1-O-Propyl-myo-inositol-2,3,4,5,6-pentakis(phosphate) decasodium salt [Compound 32]”, the EC50 falls from over 10 µM to at most 5 µM.

First: rac-4-O-(10-Hydroxydecyl)-myo-inositol-1,2,3,5,6-pentakis(phosphate) decasodium salt [Compound 21]
Second: COCCCCCCCCCCCCCCCCCCCCCCCCCCCCCO[C@H]1[C@@H](OP(=O)(O)O)[C@H](OP(=O)(O)O)[C@@H](OP(=O)(O)O)[C@H](OP(=O)(O)O)[C@H]1OP(=O)(O)O [Compound 10, 2-O-(29-methoxynonacosyl)-myo-inositol-1,3,4,5,6-pentakis(phosphate) decasodium salt]
The EC50 of the first is higher: over 10 µM for the first, at most 5 µM for the second.

Compared with “rac-4-O-(10-Carboxyldecyl)-myo-inositol-1,2,3,5,6-pentakis(phosphate) undecasodium salt [Compound 20]”, “rac-4-O-(2-(4-Acetylpiperazin-1-yl)ethyl)-myo-inositol-1,2,3,5,6-pentakis(phosphate) decasodium salt [Compound 5]” is lower in EC50: over 10 µM for the first, at most 5 µM for the second. The second is the more potent here.

“rac-4-O-(6-Aminohexyl)-myo-inositol-1,2,3,5,6-pentakis(phosphate) decasodium salt [Compound 28]” and `O=P(O)(O)O[C@@H]1[C@@H](OP(=O)(O)O)[C@H](OP(=O)(O)O)[C@H](OCCC2CCCC2)[C@H](OP(=O)(O)O)[C@H]1OP(=O)(O)O` [Compound 38, 2-O-(2-Cyclopentylethyl)-myo-inositol-1,3,4,5,6-pentakis(phosphate) decasodium salt] cannot be ordered by EC50: at most 5 µM for the first, 5 to 10 µM for the second.

Work on “rac-4-O-(5-Methoxypentyl)-myo-inositol-1,2,3,5,6-pentakis(phosphate) decasodium salt [Compound 3]” yielded an EC50 of at most 5 µM.
